Each structure is given as a SMILES string.

This is an account of results in patent US10919859B2, “Benzylaminopyridylcyclopropanecarboxylic acids, pharmaceutical compositions and uses thereof” (Boehringer Ingelheim International GmbH, priority 2017, dated 2021).

Data set [1] in a line: Aqueous solubility (buffer vs acetonitrile/water, LC-UV). The format is physicochemical. The method, then:
The aqueous solubility of the compounds of the invention is determined by comparing the amount dissolved in buffer to the amount in an acetonitrile/water (1/1) solution. Starting from a 10 mM DMSO stock solution aliquots are diluted with acetonitrile/water (1/1) or buffer, respectively. After 24 h of shaking, the solutions are filtrated and analyzed by LC-UV. The amount dissolved in buffer is compared to the amount in the acetonitrile solution.

The next data set has as its target human GPR40 receptor (Homo sapiens (Human), UniProt O14842). Put plainly: IP1 accumulation measurements using the IPOne assay system. The class given is cell-based. The note with it: 1321N1 cells stably expressing human GPR40, 1 h at 37° C. The method, then:
IP1 accumulation measurements using the IPOne assay system—1321N1 cells stably expressing human GPR40 receptor (Euroscreen, Belgium) are seeded 24 h before the assay in white 384-well plates in culture medium containing 10% FCS, 1% Na-Pyruvate and 400 μg/mL G418. IP1 is assayed according to the manufacturer's description (Cisbio Bioassays, France). In brief, the assay is started by substitution of the culture medium by stimulation buffer (Hepes 10 mM, CaCl2 1 mM, MgCl2 0.5 mM, KCl 4.2 mM, NaCl 146 mM, glucose 5.5 mM and LiCl 50 mM, pH 7.4). Cells are stimulated for 1 h at 37° C., 5% CO2 by addition of the compounds that are diluted in stimulation buffer containing LiCl. Assays are stopped by adding HTRF-conjugates (IP1-d2 and Anti-IP1 cryptate Tb) and lysis buffer, provided by the manufacturer. After an incubation time of 1 h at room temperature plates are measured using an EnVision™, Perkin Elmer. The obtained fluorescence ratios at 665/615 […] are then used to calculate the pEC50 values using Assay Explorer 3.3 Software (Accelrys, Inc.) by interpolation using an IP1 reference curve and subsequent sigmoidal curve fitting allowing for a variable hill slope.

Setting [2] is: pH 2.2 buffer, 24 h shaking, 2.5% DMSO, examples in this invention.

human GPR40 receptor, sequence (O14842 whole entry): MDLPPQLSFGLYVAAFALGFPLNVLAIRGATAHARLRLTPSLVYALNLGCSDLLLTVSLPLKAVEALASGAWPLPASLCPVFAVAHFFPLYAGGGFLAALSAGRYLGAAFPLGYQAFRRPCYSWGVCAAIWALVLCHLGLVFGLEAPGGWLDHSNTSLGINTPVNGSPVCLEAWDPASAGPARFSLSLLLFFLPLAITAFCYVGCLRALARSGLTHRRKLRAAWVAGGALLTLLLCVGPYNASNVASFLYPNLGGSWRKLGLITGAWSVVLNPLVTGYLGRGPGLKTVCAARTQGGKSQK

On to `O=C(O)[C@H]1C[C@@H]1c1ccc(NCc2cc(-c3ccc(-c4cnco4)cc3)ccc2F)cn1` [Example 32], for which the “Solubility at pH value 2.2” value in data set [1] (setting [2]) was 56 μg/mL. At human GPR40 receptor, the EC50 was 0.174 µM.
Consider `O=C(O)[C@H]1C[C@@H]1c1ccc(NCc2cc(-c3c(F)cc(OC4CC4)cc3F)ccc2F)cn1` [Example 33], for which the “Solubility at pH value 2.2” value in data set [1] (pH 2.2) was 53 μg/mL. Further, the EC50 on human GPR40 receptor is 0.297 µM.
The matching figures for `Nc1cc(F)c(-c2ccc(F)c(CNc3ccc([C@H]4C[C@@H]4C(=O)O)nc3)c2)c(F)c1` [Example 34]: 79 μg/mL and 1.45 µM.
In the same order, the values of `COc1cc(C)c(-c2ccc(F)c(CNc3ccc([C@H]4C[C@@H]4C(=O)O)nc3)c2)c(C)c1` [Example 35] are 63 μg/mL and 0.049 µM.
Turning to `Cc1ccc(Cl)c(-c2ccc(F)c(CNc3ccc([C@H]4C[C@@H]4C(=O)O)nc3)c2)c1Cl` [Example 36], in data set [1] (pH 2.2), the “Solubility at pH value 2.2” value is given as 43 μg/mL. The same compound showed an EC50 at human GPR40 receptor of 0.035 µM.
In the same order, the values of `O=C(O)[C@H]1C[C@@H]1c1ccc(NCc2cc(-c3ccccc3C(F)(F)F)ccc2F)cn1` [Example 37] are 68 μg/mL and 0.038 µM.
For the compound `N#Cc1cccc(C#N)c1-c1ccc(F)c(CNc2ccc([C@H]3C[C@@H]3C(=O)O)nc2)c1` [Example 38], the “Solubility at pH value 2.2” value in data set [1] (pH 2.2) is listed as greater than 83 μg/mL. This compound yielded a concentration for a half-maximal effect (EC50) at human GPR40 receptor greater than 10 µM.
In the same order, the values of `O=C(O)[C@H]1C[C@@H]1c1ccc(NCc2cc(-c3c(F)cccc3F)ccc2F)cn1` [Example 39] are 46 μg/mL and 0.435 µM.
In the same order, the values of `COc1cc(F)c(-c2ccc(F)c(CNc3ccc([C@H]4C[C@@H]4C(=O)O)nc3)c2)c(F)c1` [Example 40] are 62 μg/mL and 0.988 µM.
In the same order, the values of `Cc1cccc(C)c1-c1ccc(F)c(CNc2ccc([C@H]3C[C@@H]3C(=O)O)nc2)c1` [Example 41] are 59 μg/mL and 0.041 µM.
Turning to `Cc1cc(C(=O)N(C)C)cc(C)c1-c1ccc(F)c(CNc2ccc([C@H]3C[C@@H]3C(=O)O)nc2)c1` [Example 42], the “Solubility at pH value 2.2” value in data set [1] (pH 2.2) is 71 μg/mL. The compound also had an EC50 at human GPR40 receptor of 0.231 µM.
In the same order, the values of `CNC(=O)c1cc(C)c(-c2ccc(F)c(CNc3ccc([C@H]4C[C@@H]4C(=O)O)nc3)c2)c(C)c1` [Example 43] are 84 μg/mL and 0.358 µM.
In the same order, the values of `Cc1cc(OCC2CCOCC2)cc(C)c1-c1ccc(F)c(CNc2ccc([C@H]3C[C@@H]3C(=O)O)nc2)c1` [Example 44] are 66 μg/mL and 0.018 µM.
In the same order, the values of `Cc1cc(C(=O)O)cc(C)c1-c1ccc(F)c(CNc2ccc([C@H]3C[C@@H]3C(=O)O)nc2)c1` [Example 45] are 69 μg/mL and 3.66 µM.
As to `Cc1cc(OCC2(O)CCS(=O)(=O)CC2)cc(C)c1-c1ccc(F)c(CNc2ccc([C@H]3C[C@@H]3C(=O)O)nc2)c1` [Example 46], the “Solubility at pH value 2.2” value in data set [1] (pH 2.2) turned out to be 102 μg/mL. The same compound showed an EC50 at human GPR40 receptor of 0.171 µM.
In the same order, the values of `COc1cc(-c2cc(C)c(-c3ccc(F)c(CNc4ccc([C@H]5C[C@@H]5C(=O)O)nc4)c3)c(C)c2)ccn1` [Example 47] are 57 μg/mL and 0.005 µM.
The matching figures for `Cc1cc(OCC2(O)CCSCC2)cc(C)c1-c1ccc(F)c(CNc2ccc([C@H]3C[C@@H]3C(=O)O)nc2)c1` [Example 48]: 67 μg/mL and 0.056 µM.
The matching figures for `Cc1cc(OCC2(O)CCOCC2)cc(C)c1-c1ccc(F)c(CNc2ccc([C@H]3C[C@@H]3C(=O)O)nc2)c1` [Example 49]: 83 μg/mL and 0.147 µM.
Consider `CC(C)c1ccccc1-c1ccc(F)c(CNc2ccc([C@H]3C[C@@H]3C(=O)O)nc2)c1` [Example 50], for which the “Solubility at pH value 2.2” value in data set [1] (setting [2]) was 48 μg/mL. On human GPR40 receptor, this compound came in with a concentration giving a half-maximal response (EC50) of 0.081 µM.
In the same order, the values of `Cc1cnc(-c2cc(C)c(-c3ccc(F)c(CNc4ccc([C@H]5C[C@@H]5C(=O)O)nc4)c3)c(C)c2)nc1` [Example 51] are 58 μg/mL and 0.006 µM.
As for `COc1cc(OC)c(F)c(-c2ccc(F)c(CNc3ccc([C@H]4C[C@@H]4C(=O)O)nc3)c2)c1F` [Example 52], the “Solubility at pH value 2.2” value in data set [1] (pH 2.2) is given as 62 μg/mL. On human GPR40 receptor, this compound showed an EC50 of 0.836 µM.
As for `CCc1cccc(CC)c1-c1ccc(F)c(CNc2ccc([C@H]3C[C@@H]3C(=O)O)nc2)c1` [Example 53], the “Solubility at pH value 2.2” value in data set [1] (setting [2]) came out at 50 μg/mL. The compound also yielded an EC50 at human GPR40 receptor of 0.057 µM.
Consider `Cc1cc(-c2nnn(CC(C)(C)O)n2)cc(C)c1-c1ccc(F)c(CNc2ccc([C@H]3C[C@@H]3C(=O)O)nc2)c1` [Example 54], for which the “Solubility at pH value 2.2” value in data set [1] (pH 2.2) worked out at 81 μg/mL. At human GPR40 receptor, this compound registered an EC50 of 0.01 µM.
The matching figures for `Cc1cc(-c2ccnn2C)cc(C)c1-c1ccc(F)c(CNc2ccc([C@H]3C[C@@H]3C(=O)O)nc2)c1` [Example 55]: 53 μg/mL and 0.012 µM.
As for `Cc1cc(-c2ccn(C)c(=O)n2)cc(C)c1-c1ccc(F)c(CNc2ccc([C@H]3C[C@@H]3C(=O)O)nc2)c1` [Example 56], the “Solubility at pH value 2.2” value in data set [1] (setting [2]) was 86 μg/mL. The same compound showed an EC50 on human GPR40 receptor of 0.032 µM.
Take `Cc1cc(C#N)cc(C)c1-c1ccc(F)c(CNc2ccc([C@H]3C[C@@H]3C(=O)O)nc2)c1` [Example 57]: in data set [1] (pH 2.2), the “Solubility at pH value 2.2” value was 59 μg/mL. The compound further had an EC50 at human GPR40 receptor of 0.091 µM.
